Assay results published in patent publication US20030129629A1, “Methods and compositions for the identification, assessment, prevention, and therapy of human cancers” (Millennium Pharmaceuticals, Inc., priority 2000, published 2003).
Where two headings read alike, the source gives them in different places.

How the values were obtained:
[1] = tested on: tumor; conditions: animal models; cited from earlier work
[2] = tested on: 60 cancer cell lines (NCI 60 cancer cell line series); conditions: cited from earlier work
[3] = tested on: 60 cancer cell lines (NCI 60 cancer cell line series); assay: NCI-DTP in vitro cancer screen, sulforhodamine B (SRB) growth inhibition, 48 hour exposure; format: cell-based, human
In short: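 Potency is given as mean −log{GI50} from dose–response curves, manually binned into Low, Medium or High sensitivity. Sixty NCI-DTP tumour lines were treated 48 h with a duplicate, five-dose, ten-fold dilution series, and growth read by SRB staining of cell mass.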

CC(=O)O[C@@]12CO[C@@H]1C[C@H](O)[C@@]1(C)C(=O)[C@H](O)C3=C(C)[C@@H](OC(=O)[C@H](O)[C@@H](NC(=O)OC(C)(C)C)c4ccccc4)C[C@@](O)([C@@H](OC(=O)c4ccccc4)[C@H]21)C3(C)C [Taxotere, docetaxel]
anti-tumor activity [1]: good anti-tumor activity

COc1cc([C@@H]2c3cc4c(cc3[C@@H](O[C@@H]3O[C@@H]5CO[C@@H](c6cccs6)O[C@H]5[C@H](O)[C@H]3O)[C@H]3COC(=O)[C@H]23)OCO4)cc(OC)c1O [Teniposide]
−Log (GI50) ([2]; Melanoma SK-MEL-2 CL10005): 6.0
−Log (GI50) ([2]; Melanoma SK-MEL-28 CL10008): 5.8
−Log (GI50) ([2]; NSCLC NCI-H226 CL1013): 6.5
classification of cell line as Low(1), Medium(2), High(3) sensitivity to compound ([3]; Breast BT-549 CL5013): 2
classification of cell line as Low(1), Medium(2), High(3) sensitivity to compound ([3]; Breast HS-578T CL5006): 2
classification of cell line as Low(1), Medium(2), High(3) sensitivity to compound ([3]; Breast MCF7(I) CL5001): 3
classification of cell line as Low(1), Medium(2), High(3) sensitivity to compound ([3]; Breast MCF7/ADRr CL5002): 1
classification of cell line as Low(1), Medium(2), High(3) sensitivity to compound ([3]; Breast MDA-MB-231 CL5005): 2
classification of cell line as Low(1), Medium(2), High(3) sensitivity to compound ([3]; Breast MDA-MB-435 CL5011): 2
classification of cell line as Low(1), Medium(2), High(3) sensitivity to compound ([3]; Breast MDA-N CL5012): 2
classification of cell line as Low(1), Medium(2), High(3) sensitivity to compound ([3]; Breast T-47D CL5014): 2
classification of cell line as Low(1), Medium(2), High(3) sensitivity to compound ([3]; CNS SF-268 CL12014): 2
classification of cell line as Low(1), Medium(2), High(3) sensitivity to compound ([3]; CNS SF-295 CL12015): 2
classification of cell line as Low(1), Medium(2), High(3) sensitivity to compound ([3]; CNS SF-539 CL12016): 2
classification of cell line as Low(1), Medium(2), High(3) sensitivity to compound ([3]; CNS SNB-19 CL12002): 2
classification of cell line as Low(1), Medium(2), High(3) sensitivity to compound ([3]; CNS SNB-75(I) CL12005): 2
classification of cell line as Low(1), Medium(2), High(3) sensitivity to compound ([3]; CNS U251(I) CL12009): 2
classification of cell line as Low(1), Medium(2), High(3) sensitivity to compound ([3]; Colon COLO-250 CL4010): 2
classification of cell line as Low(1), Medium(2), High(3) sensitivity to compound ([3]; Colon HCC-2998 CL4002): 2
classification of cell line as Low(1), Medium(2), High(3) sensitivity to compound ([3]; Colon HCT-15 CL4015): 2
classification of cell line as Low(1), Medium(2), High(3) sensitivity to compound ([3]; Colon HCT-116 CL4003): 2
classification of cell line as Low(1), Medium(2), High(3) sensitivity to compound ([3]; Colon HT29(I) CL4001): 2
classification of cell line as Low(1), Medium(2), High(3) sensitivity to compound ([3]; Colon KM12 CL4017): 2
classification of cell line as Low(1), Medium(2), High(3) sensitivity to compound ([3]; Colon SW-620 CL4009): 2
classification of cell line as Low(1), Medium(2), High(3) sensitivity to compound ([3]; Leukemia CCRF-CEM(I) CL7003): 3
classification of cell line as Low(1), Medium(2), High(3) sensitivity to compound ([3]; Leukemia HL-60(I) CL7008): 3
classification of cell line as Low(1), Medium(2), High(3) sensitivity to compound ([3]; Leukemia K562(I) CL7005): 2
classification of cell line as Low(1), Medium(2), High(3) sensitivity to compound ([3]; Leukemia MOLT-4 CL7006): 3
classification of cell line as Low(1), Medium(2), High(3) sensitivity to compound ([3]; Leukemia RPMI-8226(I) CL7010): 2
classification of cell line as Low(1), Medium(2), High(3) sensitivity to compound ([3]; Leukemia SR CL7019): 3
classification of cell line as Low(1), Medium(2), High(3) sensitivity to compound ([3]; Melanoma LOX IMVI CL10001): 2
classification of cell line as Low(1), Medium(2), High(3) sensitivity to compound ([3]; Melanoma M14 CL10014): 2
classification of cell line as Low(1), Medium(2), High(3) sensitivity to compound ([3]; Melanoma MALME-3M CL10002): 2
classification of cell line as Low(1), Medium(2), High(3) sensitivity to compound ([3]; Melanoma SK-MEL-2 CL10005): 2
classification of cell line as Low(1), Medium(2), High(3) sensitivity to compound ([3]; Melanoma SK-MEL-28 CL10008): 2
sensitivity classification Low(1)/Medium(2)/High(3) ([3]; NSCLC NCI-H23(I) CL1001): 2
sensitivity classification Low(1)/Medium(2)/High(3) ([3]; NSCLC NCI-H332M CL1017): 1
sensitivity classification Low(1)/Medium(2)/High(3) ([3]; NSCLC NCI-H460 CL1021): 3
sensitivity classification Low(1)/Medium(2)/High(3) ([3]; NSCLC NCI-H522 CL1003): 2
sensitivity classification Low(1)/Medium(2)/High(3) ([3]; Ovarian IGROV1 CL6010): 2
sensitivity classification Low(1)/Medium(2)/High(3) ([3]; Ovarian OVCAR-3 CL6001): 2
sensitivity classification Low(1)/Medium(2)/High(3) ([3]; Ovarian OVCAR-4 CL6002): 1
sensitivity classification Low(1)/Medium(2)/High(3) ([3]; Ovarian OVCAR-5 CL6003): 2
sensitivity classification Low(1)/Medium(2)/High(3) ([3]; Ovarian OVCAR-8 CL6005): 2
sensitivity classification Low(1)/Medium(2)/High(3) ([3]; Ovarian SK-OV-3 CL6011): 2
sensitivity classification Low(1)/Medium(2)/High(3) ([3]; Prostate DU-145 CL11003): 2
sensitivity classification Low(1)/Medium(2)/High(3) ([3]; Prostate PC-3(I) CL11001): 2
sensitivity classification Low(1)/Medium(2)/High(3) ([3]; Renal 786-0 CL9018): 2
sensitivity classification Low(1)/Medium(2)/High(3) ([3]; Renal A498 CL9013): 2
sensitivity classification Low(1)/Medium(2)/High(3) ([3]; Renal ACHN CL9023): 2
sensitivity classification Low(1)/Medium(2)/High(3) ([3]; Renal CAKI-1 CL9015): 3
sensitivity classification Low(1)/Medium(2)/High(3) ([3]; Renal RXF-393 CL9016): 2
sensitivity classification Low(1)/Medium(2)/High(3) ([3]; Renal SN12C CL9008): 2
sensitivity classification Low(1)/Medium(2)/High(3) ([3]; Renal TK10 CL9024): 2
sensitivity classification Low(1)/Medium(2)/High(3) ([3]; Renal UO-31 CL9004): 1
